Experimental data taken from ChEMBL document CHEMBL3137381, “MMV Box Onchocerca lienalis screening set”.

Key:
Assay type in all cases: functional
Onchocerca lienalis [1] = experiment: MMV: Percent motility assay at a compound concentration of 1.25e-5 M. Activity score legend: 3: Active, 2: Moderately active; 1: Inactive, 0: Toxic; conditions: at 12.5 µM
Onchocerca lienalis [2] = experiment: MMV: Percent motility assay at a compound concentration of 3.1e-6 M. Activity score legend: 3: Active, 2: Moderately active; 1: Inactive, 0: Toxic; conditions: at 3.1 µM
Onchocerca lienalis [3] = experiment: MMV: Percent motility assay at a compound concentration of 1.9e-7 M. Activity score legend: 3: Active, 2: Moderately active; 1: Inactive, 0: Toxic; conditions: at 0.19 µM
Onchocerca lienalis [4] = experiment: MMV: Percent motility assay at a compound concentration of 7.8e-7 M. Activity score legend: 3: Active, 2: Moderately active; 1: Inactive, 0: Toxic; conditions: at 0.78 µM

SMILES | Motility (Onchocerca lienalis [1]) [%] | Motility (Onchocerca lienalis [2]) [%] | Motility (Onchocerca lienalis [3]) [%] | Motility (Onchocerca lienalis [4]) [%]
CCOc1cc(CNC(C)C(O)c2ccccc2)cc(Cl)c1OCC (configuration not stated) | 100 | 100 | 100 | 100
Cc1cc(NC(=O)c2cccc(C(F)(F)F)c2)n(-c2nc(-c3ccc4c(c3)OCO4)cs2)n1 | 100 | 100 | 100 | 100
COc1cccc(C2(C)Nc3ccccc3-c3nc4ccccc4n32)c1 (configuration not stated) | 100 | 100 | 100 | 100
CC(C)CNC(=O)c1c(N)n(CCc2ccccc2F)c2nc3ccccc3nc12 | 100 | 100 | 100 | 100
Cc1cccc(-n2ncc3c(O)nc(-n4nc(C)cc4NC(=O)c4cc5ccccc5o4)nc32)c1 | 0 | 100 | 100 | 100
Oc1ccccc1CN1CCC2(CCCN(Cc3ccccc3F)C2)C1 (configuration not stated) | 100 | 100 | 100 | 100
COc1cccc(Nc2nc(NCCO)c3ccccc3n2)c1.Cl | 100 | 100 | 100 | 100
Cc1ccc(-c2cc(C(=O)Nc3ccc(S(=O)(=O)N4CCCCC4)cc3)[nH]n2)c(O)c1 | 100 | 100 | 100 | 100
COCCNCC(O)Cn1c2ccc(Cl)cc2c2cc(Cl)ccc21 (configuration not stated) | 66.66 | 100 | 100 | 100
COc1ccc(N2CCN(C(CNC(=O)C3CCCCC3)c3ccc4c(c3)OCO4)CC2)cc1 (configuration not stated) | 100 | 100 | 100 | 100
O=C(NC1CCN(Cc2ccccc2)CC1)c1cc(-c2ccncc2)nc2ccc(Cl)cc12 | 100 | 100 | 100 | 100
COc1cc2cc(C(=O)Nc3ccccc3)c(N)nc2cc1OC | 100 | 100 | 100 | 100
Cc1[nH]c(-c2ccc(F)cc2)cc1C(=O)NC1CCN(Cc2ccccc2)CC1 | 100 | 100 | 100 | 100
O=C(O)C(=O)O.Oc1ccccc1CN1CCN(C(c2ccccc2)c2ccccc2)CC1 | 100 | 100 | 100 | 100
O=C(NC1CCCC1)c1ccc(N2CCC(NCc3cccc(C(F)(F)F)c3)CC2)cc1 | 100 | 100 | 100 | 100
CCOc1cc(Br)c(C(C)NC(=O)c2cccc(OC)c2)cc1OCC (configuration not stated) | 100 | 100 | 100 | 100
CCN(CC)CCn1c(=N)n(CC(O)c2ccc(Cl)c(Cl)c2)c2ccccc21.Cl (configuration not stated) | 100 | 100 | 100 | 100
CCOc1cc(Cl)c(C(C)NC(=O)c2cccc(OC)c2)cc1OCC (configuration not stated) | 100 | 100 | 100 | 100
CC(=O)Nc1nnc(SCc2c(C)cc(C(C)(C)C)cc2C)s1 | 100 | 100 | 100 | 100
Cc1ccc(Cl)cc1N1CCN(CCCNC(=O)C2CCN(c3nc4ccccc4[nH]3)CC2)CC1 | 100 | 100 | 100 | 100
Cc1ccc(CSCc2ccc(C(=O)NC3CC3)o2)cc1 | 100 | 100 | 100 | 100
CN1CCN(c2c3c(c(C#N)c4nc5ccccc5n24)CCC3)CC1 | 100 | 100 | 100 | 100
CCOc1ccc(C2N(C)c3ccccc3N2C)cc1 | 100 | 100 | 100 | 100
CC(=O)NCCc1nc2ccccc2n1Cc1ccc(C(C)C)cc1 | 100 | 100 | 100 | 100
COc1nc(Nc2ccc(C(C)C)cc2)nc(OC)n1 | 100 | 100 | 100 | 100
CCN(CC)CCNc1ncnc2c1[nH]c1ccc(Br)cc12 | 100 | 100 | 100 | 100
CCOc1cccc(C(=O)Nc2ccc(-c3nc4ccccc4[nH]3)cc2)c1 | 100 | 100 | 100 | 100

SMILES | Motility (Onchocerca lienalis [1]) [%] | Motility (Onchocerca lienalis [2]) [%] | Motility (Onchocerca lienalis [3]) [%] | Motility (Onchocerca lienalis [4]) [%]
Cl.Clc1cc(Br)ccc1-c1ccc(CNCC2CCNCC2)o1 | 100 | 100 | 100 | 100
CCCC(c1nnnn1C1CCCCC1)N1CCN(C(=O)c2ccco2)CC1.Cl (configuration not stated) | 100 | 100 | 100 | 100
CC(C)(C)C(=O)Nc1ccc(C(=O)Nc2cccc(-c3nc4ccccc4[nH]3)c2)cc1 | 100 | 100 | 100 | 100
COc1ccc(-c2nonc2NC(=O)c2cccc(C)c2)cc1OC | 100 | 100 | 100 | 100
COc1cccc(-c2nn(C)c3sc(C(=O)NCCN4CCN(c5ccccc5F)CC4)cc23)c1 | 100 | 100 | 100 | 100
O=C(Nc1ccc(N2CCN(Cc3ccccc3)CC2)cc1)c1cccs1.O=C(O)C(F)(F)F | 100 | 100 | 100 | 100
Cc1ccc(CN2CCC(C(=O)Nc3ccc(-c4cc5ccccc5[nH]4)cc3)CC2)o1 | 100 | 100 | 100 | 100
O=C(Nc1ccc(N2CCCCC2)c(Cl)c1)c1ccc(Br)o1 | 100 | 100 | 100 | 100
Cc1cc(C)c2nc(N3CCC(C(=O)NCCCN4CCC(N5CCCCC5)CC4)CC3)sc2c1 | 100 | 100 | 100 | 100
CC(C)(C)c1ccc(C(=O)Nc2nc3ccccc3s2)cc1 | 100 | 100 | 100 | 100
CC1CC(C)CN(C(=O)c2ccc(Cl)cc2Cl)C1 (configuration not stated) | 100 | 100 | 100 | 100
COc1ccccc1CNC(=O)C1c2ccccc2C(=O)N(CC(C)C)C1c1cccs1 (configuration not stated) | 100 | 100 | 100 | 100
OC(CNC1CCCC1)Cn1c2ccccc2c2ccccc21 (configuration not stated) | 100 | 100 | 100 | 100
COc1ccc(C2N(C)c3ccccc3N2C)cc1 | 100 | 100 | 100 | 100
CC(C)OCc1cc(CN2CCN(c3cccc(Cl)c3)CC2)c(O)c2ncccc12 | 0 | 100 | 100 | 100
O=C(Nc1ccc(F)c(Cl)c1)Nc1ccc(Cl)c(Cl)c1 | 0 | 100 | 100 | 100
Clc1ccc2[nH]c3c(NCCCN4CCOCC4)ncnc3c2c1 | 100 | 100 | 100 | 100
Oc1c2c(nc3cc(-c4ccccc4)nn13)CCCC2 | 100 | 100 | 100 | 100
CCOc1c(Cl)cc(CNC(C)C(O)c2ccccc2)cc1OC (configuration not stated) | 100 | 100 | 100 | 100
CCCN(CCC)CCCNC(=O)c1cc2c(-c3ccc(OC)c(OC)c3)nn(C)c2s1 | 100 | 100 | 100 | 100
Cc1cc(N2CCN(C3CCCC3)CC2)n2c(nc3ccccc32)c1C#N | 100 | 100 | 100 | 100
CCCCOc1ccc(C(=O)Nc2cc(C)on2)cc1 | 100 | 100 | 100 | 100
O=C(NCC1Cc2cccc(-c3ccncc3)c2O1)c1csc2c1CCCC2 (configuration not stated) | 100 | 100 | 100 | 100
CCc1ccc(Nc2cc(C)nc3nc(C)nn23)cc1 | 100 | 100 | 100 | 100
Br.CCN(CC)S(=O)(=O)c1ccc(-c2csc(Nc3ccc(C)c(C)c3)n2)cc1 | 100 | 100 | 100 | 100
C=CCc1c(C)nc2ccccc2c1O | 100 | 100 | 100 | 100
